Source: article PMC12650519, “The Identification of a Sub-Micromolar Peptide-Based Protein Arginine Methyltransferase 1 (PRMT1) Inhibitor from a Plate-Based Screening Assay” (Biomolecules, 2025)
Like-named read-outs stand apart in the source and are kept apart here. Starred links: 1 amine or outer side, 2 acyl side, 3 side chain; linkers in the order of their positions; H or OH if unused. Non-standard residues stand in square brackets, D forms with d. Residues, ends and D or L forms follow the SMILES beside them. X1 = N=C(CCl)NCCC[C@H](N[*:1])C(=O)[*:2]

How the values were obtained:
PRMT1 [1] = molecular target: T1, PRMT1 (Homo sapiens, UniProt Q99873); conditions: cited from earlier work
T1 construct: made in house
T1 sequence (Q99873 1-353 isoform Q99873-3): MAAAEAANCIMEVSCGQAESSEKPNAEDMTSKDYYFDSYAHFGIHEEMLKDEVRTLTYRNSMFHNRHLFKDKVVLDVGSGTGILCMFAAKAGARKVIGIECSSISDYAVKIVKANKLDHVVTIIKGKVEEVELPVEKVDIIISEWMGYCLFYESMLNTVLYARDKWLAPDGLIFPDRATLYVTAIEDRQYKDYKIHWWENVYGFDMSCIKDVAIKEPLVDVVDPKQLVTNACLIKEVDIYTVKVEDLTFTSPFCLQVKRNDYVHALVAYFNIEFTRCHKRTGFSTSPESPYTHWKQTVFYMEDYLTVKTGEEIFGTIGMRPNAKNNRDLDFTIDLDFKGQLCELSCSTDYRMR
Protocol: Table 3 List of Validation Peptide Sequences along with the Kinetic Parameters. | column: kcat (min^−1); Km (µM); kcat/Km (M^−1 min^−1) || Design and Synthesis of the Peptide Library. Histone peptides are well-documented substrates of PRMT1 and thus provide a good model for the design of a screening library to search for better PRMT1 peptide substrates. […] Given that our study is focused on identifying peptide substrates with improved kinetic parameters, we chose to use a library based on the H4-16 template. Our previous work highlighted that flexibility was permitted within the ... || Rather than testing all individual hit peptide sequences, and to help identify the specific elements that are important for PRMT1 substrate binding, we collected and synthesized a series of consensus-based sequences from the list of hit peptides.

PRMT1 [2] = molecular target: T1, PRMT1; assay: MTase-Glo Methyltransferase Assay, kinetic parameters of peptide substrates; type: biochemical; conditions: Tris pH 8.0; for kcat / Km: MTase-Glo luminescence, peptide 0–1000 µM, 4 µL of 200 nM PRMT1, 10 min at 37 °C, SAH standards, fit with GraFit; for kcat/Km: from kcat and Km, MTase-Glo assay, 37 °C
Protocol: To determine the kinetic parameters, kcat, Km and kcat/Km for each of the validation or hit peptides, a MTase-Glo™ Methyltransferase Assay from the Promega Corporation was utilized to monitor the enzymatic reaction.
Varying concentrations (0–1000 µM) of the peptide in assay buffer (4 mM DTT, 0.4 mg/mL BSA, 4 mM EDTA, 12 mM MgCl2, 200 mM NaCl and 80 mM Tris Buffer-pH 8.0) were incubated at 37 °C for 10 min. Then 4 µL of 200 nM PRMT1 was added to this reaction mixture and continued for another 10 min at 37 °C. Of note the enzymatic activity was linear with respect to time and enzyme concentration under these conditions. The reaction was quenched by the addition of 2 µL 0.5% TFA and placed at room temperature before adding 2.2 µL of the 6× MTase-Glo Reagent. After 30 min, 13.2 µL of the MTase-Glo Detection Solution was added and incubated for an additional 30 min before the luminescence was read using a BioTek Synergy 2 Multi-Mode Microplate Reader (Agilent Technologies, Santa Clara, CA). Luminescence signal was converted to product concentration using SAH standards (0–5 μM) and the initial rates were fit to Equation (1):[…](1) using GraFit version 7.03.

PRMT1 [3] = assay: Plate-based on-bead substrate screening assay (ADMA antibody / alkaline phosphatase / BCIP); type: biochemical; conditions: 20 beads/well; 500 nM PRMT1, 400 µM SAM, 37 °C, HEPES pH 8.0; hit = at least 10 blue beads per well
Protocol: The beads from the filter plate were transferred to an Acrowell 96 Filter screening plate (Cat#5020; Pall Corporation; Port Washington, NY) and rinsed with 0.20 mL DI water, followed by 0.20 mL of TBST 10 times. The beads were swelled with 0.25 mL TBST overnight with gentle rocking at 4 °C. The plate was rinsed with 0.25 mL of Assay Buffer #1 (50 mM HEPES pH 8.0, 50 mM NaCl, 1 mM EDTA). After draining, the plate was incubated with 500 nM PRMT1 in 0.1 mL of Assay Buffer #2 (50 mM HEPES pH 8.0, 50 mM NaCl, 1 mM EDTA, 0.5 mM DTT, 400 µM SAM) for 90 min at 37 °C while rocked gently at 120 rpm. The plate was rinsed with TBST (5 × 0.20 mL) then rocked gently in 100 µL of 0.1% SDS for 15 min at room temperature, before being washed with DI water (10 × 0.20 mL) and TBST (10 × 0.20 mL).
Beads were blocked with 125 µL of 1.5% (w/v) BSA in TBST for 1 h at room temperature with gentle rocking. The beads were rinsed with TBST (5 × 0.20 mL), then incubated overnight at 4 °C with 0.065 mL total volume of TBST + 1.5% (w/v) BSA + 1:500 Ab412 antibody (purchased from Abcam; Cambridge, UK) with gentle rocking.
The plate was then rinsed with 0.20 mL of TBS for 10 min and 0.20 mL TBST for another 10 min. The plate was incubated with gentle rocking for 60 min at room temperature with 0.065 mL total volume of TBST + 1.5% (w/v) BSA + 1:4000 Ab98690 antibody (secondary antibody: purchased from Abcam; Cambridge, UK). This mixture was rinsed with TBS (10 × 0.20 mL), then 0.2 mL TBST for 10 min. The plate was then incubated with 2.5 mg/mL 5-Bromo-4-chloro-3-indolyl phosphate (BCIP: a substrate that detects alkaline phosphatase emitting a blue hue when conjugated with secondary antibodies) dissolved in BCIP buffer (5.85 g NaCl, 12.1 g Tris-base, 0.476 g MgCl2 in 1 L of DI water, pH 9.0) at room temperature for 1 h with gentle rocking. The reaction was quenched with 0.1 M HCl.
Previously, we reported on this novel plate-based screening assay of the PRMT family of enzymes and identified a PRMT1 peptide substrate with kcat/Km of 8.1 × 10^4 M^−1 min^−1, which validated this screening methodology. In the current work, we utilized this method to screen a second-generation peptide library against PRMT1, which incorporated amino acids with diverse charge, size, and PTMs around the substrate arginine. Beads functionalized with peptide library members were washed extensively with buffers and subsequently incubated with PRMT1 for 60 min. The methylation reaction was then quenched with sodium dodecyl sulfate to denature PRMT1 and halt the enzymatic reaction. The peptide beads that contained ADMA as a result of PRMT1 action were identified using a 1° antibody that binds only to ADMA. […] The beads were then incubated with a 2° antibody conjugated to alkaline phosphatase. […]

PRMT1 [4] = molecular target: T1, PRMT1; assay: MTase-Glo assay, inhibition by chloroacetamidine warhead peptide; type: biochemical; conditions: inhibitor 0–250 µM, 4 µL of 400 nM PRMT1, 15 min pre-incubation at 37 °C, substrate AcH4-21 (1 µL of 225 µM), Tris pH 8.0
Protocol: The MTase-Glo assay was also used to determine the inhibition parameters of the chloroacetamidine warhead peptide. For this assay, various concentrations of the chloroacetamidine warhead peptide (0–250 µM) were added to reaction buffer (80 mM Tris Buffer [pH 8.0], […], 4 mM EDTA, 12 mM MgCl2, 0.4 mg/mL BSA and 4 mM DTT) and incubated for 10 min at 37 °C. Following this incubation, 4 µL of 400 nM PRMT1 was added to the inhibition reaction mix and continued to be incubated at 37 °C for 15 min. The substrate peptide, 1 uL of 225 µM AcH4-21, was added to each reaction for 15 min. To quench the reaction, each sample received 2 µL of 0.5% TFA solution and placed at room temperature before 2.2 µL of the 6× MTase-Glo reagent was added to each sample for 30 min. Then 13.2 µL of the MTase-Glo Detection solution was added and incubated for an additional 30 min. The luminescence signal was read using a BioTek Synergy 2 Multi-Mode Microplate Reader and the % activity was calculated using an SAH standard curve (0–5 µM) before being fit to Equation (2):(2) Fractional Activity of PRMT=1/1+ 1/IC50 using GraFit version 7.03.

[5] = reference histone peptide substrate in Table 3, same kcat/Km as quoted

| Compound | kcat (PRMT1 [2]) | Km (PRMT1 [2]; read-out: Km) [µM] | kcat/Km (PRMT1 [2]) [M⁻¹ s⁻¹] | hit / non-hit as PRMT1 substrate in the plate-based screen (PRMT1 [3]) | also measured |
| --- | --- | --- | --- | --- | --- |
| SGRGKGGKGLGKGGAK [AcH4-16, Histone H4-16 peptide, a mediocre substrate of PRMT1, template of the library] |  |  |  |  | Km (PRMT1 [1]; [5]): 170 ± 25 µM; kcat (PRMT1 [1]; [5]): 0.00533 ± 1.7e-05 s⁻¹; kcat/Km (PRMT1 [1]; reference histone peptide substrate): 31.7 M⁻¹ s⁻¹ |
| XKCKARGGKGLGKGGAK [VALPep1] | 0.041 ± 0.00133 s⁻¹ | 8.72 ± 1.2 | 4700 |  |  |
| WWXXWRGGKGLGKGGAK [Well B10 Peptide, “non-hit” library peptide WWXX…, X = acetylated lysine] | not detectable |  |  | non-hit | Km (PRMT1 [2]): not detectable |
| XKKKARGGKGLGKGGAK [VALPep2] | 0.043 ± 0.0029 s⁻¹ | 7.82 ± 2.23 | 5480 |  |  |
| XCCVARGGKGLGKGGAK [Well G2 Peptide, “hit” library peptide X…, X = acetylated lysine] | 0.0164 ± 6.7e-05 s⁻¹ | 25.4 ± 3.95 | 648 | hit |  |
| VXWAWRGGKGLGKGGAK [Well E9 Peptide, “non-hit” library peptide VX…, X = acetylated lysine] | not detectable |  |  | non-hit | Km (PRMT1 [2]): not detectable |
| CC(=O)NCCCC[C@H](N)C(=O)N[C@@H](CCCCN)C(=O)N[C@@H](CS)C(=O)N[C@@H](CCCCN)C(=O)N[C@@H](C)C(=O)N[C@@H](CCCNC(=N)CCl)C(=O)NCC(=O)NCC(=O)N[C@@H](CCCCN)C(=O)NCC(=O)N[C@@H](CC(C)C)C(=O)NCC(=O)N[C@@H](CCCCN)C(=O)NCC(=O)NCC(=O)N[C@@H](C)C(=O)N[C@@H](CCCCN)C(N)=O [VALPep1 Warhead Peptide] (H-K(Ac)KCKA[X1]GGKGLGKGGAK-NH2) |  |  |  |  | IC50 (PRMT1 [4]): 3.47 ± 0.46 µM |
| XKKVVRGGKGLGKGGAK [VALPep4] | 0.0268 ± 0.00173 s⁻¹ | 7.42 ± 2.02 | 3600 |  |  |
| H4-21 peptide: one of the best-known PRMT1 peptide substrates |  |  |  |  | kcat/Km (PRMT1 [1]; known PRMT1 peptide substrate Histone H4-21, literature value, no reference printed): 4670 M⁻¹ s⁻¹; kcat/Km (PRMT1 [1]; known PRMT1 peptide substrate Histone H4-21, literature value, no reference printed, listed as Histone H4-21): 4670 M⁻¹ s⁻¹ |
| XKCVVRGGKGLGKGGAK [VALPep3] | 0.0154 ± 0.0006 s⁻¹ | 6.92 ± 1.16 | 2230 |  |  |
| VKVCXRGGKGLGKGGAK [Well D5 Peptide, “hit” library peptide VKVCX…, X = acetylated lysine] | 0.0318 ± 0.00188 s⁻¹ | 6.78 ± 1.77 | 4700 | hit | kcat (PRMT1 [2]; listed as Well D5): 0.03187 ± 0.00188 s⁻¹; kcat/Km (PRMT1 [2]; listed as Well D5): 4702 M⁻¹ s⁻¹ |
